Results taken from patent US20220317138A1, “METHODS FOR DETERMINING THE CONCENTRATION OF A CARBAPENEM ANTIBIOTIC IN A BIOLOGICAL SAMPLE” (priority 2019, published 2022).
Like-named read-outs stand apart in the source and are kept apart here.

Key:
[1] = target: Ndm1 beta-lactamase (class B) (Klebsiella pneumoniae, UniProt C7C422); assay type: biochemical; details: nitrocefin reporter
[2] = target: Imp1 beta-lactamase (class B) (Serratia marcescens, UniProt P52699); assay type: biochemical; details: nitrocefin reporter
Chain of Imp1 beta-lactamase (class B) (P52699 19-246 limits assumed): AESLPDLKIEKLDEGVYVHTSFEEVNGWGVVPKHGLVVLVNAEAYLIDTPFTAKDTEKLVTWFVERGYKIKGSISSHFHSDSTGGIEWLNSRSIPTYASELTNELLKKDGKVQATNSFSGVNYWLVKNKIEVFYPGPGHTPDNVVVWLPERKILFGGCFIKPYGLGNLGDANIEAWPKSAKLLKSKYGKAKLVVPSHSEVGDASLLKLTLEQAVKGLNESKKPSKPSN

[3] = test system: Per2 beta-lactamase (class A); assay: Screening of beta-lactamases by competition, nitrocefin as reporter substrate; assay type: biochemical
[4] = test system: Imp4 beta-lactamase (class B); assay: as above; assay type: biochemical
[5] = test system: AmpCHD beta-lactamase (class C); assay: as above; assay type: biochemical
[6] = target: T1, beta-lactamase class D OXA-48 (Klebsiella pneumoniae, UniProt Q6XEC0); assay type: biochemical; details: for Accuracy <> (average) / [Meropenem] <> (average): average of 5 replicates
T1 sequence (Q6XEC0 23-265 limits assumed): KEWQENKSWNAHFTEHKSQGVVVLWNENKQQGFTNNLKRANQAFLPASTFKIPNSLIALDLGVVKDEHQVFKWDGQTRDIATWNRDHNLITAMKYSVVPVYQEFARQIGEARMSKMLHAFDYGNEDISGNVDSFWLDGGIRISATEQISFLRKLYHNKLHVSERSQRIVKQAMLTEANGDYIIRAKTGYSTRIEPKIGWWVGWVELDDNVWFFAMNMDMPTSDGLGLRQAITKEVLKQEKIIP
From the text: The specificity (or selectivity) of the method according to an embodiment of the invention is defined as the ability of the method to measure the concentration of a carbapenem antibiotic (such as meropenem) in presence of an excess of another beta-lactam antibiotic (second beta-lactam) currently used in ICUs (see Table 4).
To determine the specificity of the method illustrating the invention for carbapenem antibiotics, in particular meropenem, versus other beta-lactam antibiotics, stock-solutions of second beta-lactam antibiotics were prepared in water.
An excess of a second beta-lactam concentration of up to 10 times the concentration of meropenem was used.

[7] = target: P99 beta-lactamase (class C) (Enterobacter cloacae, UniProt P05364); assay type: biochemical; details: nitrocefin reporter
Chain of P99 beta-lactamase (class C) (P05364 21-381): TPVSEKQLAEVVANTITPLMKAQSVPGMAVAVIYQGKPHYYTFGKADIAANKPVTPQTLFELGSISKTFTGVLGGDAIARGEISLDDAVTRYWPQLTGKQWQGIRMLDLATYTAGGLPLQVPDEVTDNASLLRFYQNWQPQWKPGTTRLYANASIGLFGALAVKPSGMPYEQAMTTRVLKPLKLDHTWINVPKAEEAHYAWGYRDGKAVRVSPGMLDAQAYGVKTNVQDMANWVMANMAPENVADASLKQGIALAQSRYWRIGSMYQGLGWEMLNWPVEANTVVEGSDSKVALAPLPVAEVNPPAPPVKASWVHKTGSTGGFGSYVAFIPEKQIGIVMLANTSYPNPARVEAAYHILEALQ

OXA-163 = details: OXA-163, for meropenem; cited from earlier work
[8] = target: Oxa48 beta-lactamase (class D) (Klebsiella pneumoniae, UniProt Q6XEC0); assay type: biochemical; details: nitrocefin reporter
Chain of Oxa48 beta-lactamase (class D) (Q6XEC0 23-265 limits assumed): as the sequence (Q6XEC0 23-265 limits assumed) above

[9] = target: Kpc2 beta-lactamase (class A) (Klebsiella pneumoniae, UniProt Q9F663); assay type: biochemical; details: nitrocefin reporter
[10] = target: BlaP beta-lactamase (class A) (Bacillus licheniformis, UniProt P00808); assay type: biochemical; details: nitrocefin reporter
Chain of BlaP beta-lactamase (class A) (P00808 27-307 limits assumed): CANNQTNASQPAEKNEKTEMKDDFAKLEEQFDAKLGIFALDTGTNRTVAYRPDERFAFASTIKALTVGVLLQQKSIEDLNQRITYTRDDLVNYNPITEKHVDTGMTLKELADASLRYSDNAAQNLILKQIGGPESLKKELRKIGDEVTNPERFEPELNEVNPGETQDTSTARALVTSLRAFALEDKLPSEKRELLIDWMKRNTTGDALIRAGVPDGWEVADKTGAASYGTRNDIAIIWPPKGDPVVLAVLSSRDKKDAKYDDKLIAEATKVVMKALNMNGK

OXA-48 = OXA-48 (Klebsiella pneumoniae, UniProt Q6XEC0); details: OXA-48, for meropenem; cited from earlier work
Chain of OXA-48 (Q6XEC0 23-265 limits assumed): as the sequence (Q6XEC0 23-265 limits assumed) above

[11] = target: T1, beta-lactamase class D OXA-48; assay type: biochemical; details: OXA-48, nitrocefin, 482 nm
[12] = target: CTXM15 beta-lactamase (class A) (Escherichia coli, UniProt Q9EXV5); assay type: biochemical; details: nitrocefin reporter
Chain of CTXM15 beta-lactamase (class A) (Q9EXV5 29-291 limits assumed): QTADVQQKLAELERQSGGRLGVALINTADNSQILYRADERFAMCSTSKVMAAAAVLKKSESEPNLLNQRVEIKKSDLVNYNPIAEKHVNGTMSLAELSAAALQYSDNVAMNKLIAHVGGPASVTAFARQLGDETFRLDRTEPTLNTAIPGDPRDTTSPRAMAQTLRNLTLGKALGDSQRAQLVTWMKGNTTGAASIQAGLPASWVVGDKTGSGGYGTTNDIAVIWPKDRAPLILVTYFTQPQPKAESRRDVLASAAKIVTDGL

[13] = Activity loss of the beta-lactamase in 1 h; assay type: physicochemical; details: enzyme activity
[14] = Meropenem 1.2 mg/L, second β-lactam 10.0 mg/L (8.4 times excess)
[15] = Meropenem 20.0 mg/L, second β-lactam 200.0 mg/L (10 times excess)

With `Cn1nnnc1SCC1=C(C(=O)O)N2C(=O)[C@@H](NC(=O)[C@H](O)c3ccccc3)[C@H]2SC1` [Cefamandole ®, Cefamandole] the “hydrolysis rate symbol, (Vmax/V0)-1” value [1] was “+ (0.1-1)”, the “hydrolysis rate symbol, (Vmax/V0)-1” value [2] was “++ (1-10)” and the “hydrolysis rate symbol, (Vmax/V0)-1” value [3] was “+ (0.1-1)”. The “hydrolysis rate symbol, (Vmax/V0)-1” value [4] was “++ (1-10)”, the “hydrolysis rate symbol, (Vmax/V0)-1” value [5] was “++ (1-10)” and the “Accuracy <> (average)” value [6, 14] was 115%. For the same molecule, the “[Meropenem] <> (average)” value [6, 14] was 1.3 mg/L, the “Accuracy Replicate 1” value [6, 14] was 112% and the “[Meropenem] Replicate 1” value [6, 14] was 1.3 mg/L. The “Accuracy Replicate 2” value [6, 14] was 116%, the “[Meropenem] Replicate 2” value [6, 14] was 1.3 mg/L and the “Accuracy Replicate 3” value [6, 14] was 114%. The “[Meropenem] Replicate 3” value [6, 14] was 1.3 mg/L, the “Accuracy Replicate 4” value [6, 14] was 123% and the “[Meropenem] Replicate 4” value [6, 14] was 1.4 mg/L. For the same molecule, the “Accuracy Replicate 5” value [6, 14] was 112%, the “[Meropenem] Replicate 5” value [6, 14] was 1.3 mg/L and the “Accuracy <> (average)” value [6, 15] was 99%. The “[Meropenem] <> (average)” value [6, 15] was 22.0 mg/L, the “Accuracy Replicate 1” value [6, 15] was 97% and the “[Meropenem] Replicate 1” value [6, 15] was 21.5 mg/L. The “Accuracy Replicate 2” value [6, 15] was 98%, the “[Meropenem] Replicate 2” value [6, 15] was 21.9 mg/L and the “Accuracy Replicate 3” value [6, 15] was 99%. The “[Meropenem] Replicate 3” value [6, 15] was 22.2 mg/L, the “Accuracy Replicate 4” value [6, 15] was 105% and the “[Meropenem] Replicate 4” value [6, 15] was 23.4 mg/L. For the same molecule, the “Accuracy Replicate 5” value [6, 15] was 94%, the “[Meropenem] Replicate 5” value [6, 15] was 21.0 mg/L and the “hydrolysis rate symbol, (Vmax/V0)-1” value [7] was “++ (1-10)”.

For `C[C@@H](O)[C@H]1C(=O)N2C(C(=O)O)=C(S[C@@H]3CN[C@H](C(=O)N(C)C)C3)[C@H](C)[C@H]12` [Meropenem, meropenem], the Km (OXA-163) is listed as 2200 µM, the “hydrolysis rate symbol, (Vmax/V0)-1” value [8] is listed as “+++ (10-100)” and the “hydrolysis rate symbol, (Vmax/V0)-1” value [9] is listed as “+ (0.1-1)”. The “hydrolysis rate symbol, (Vmax/V0)-1” value [10] was “+ (0.1-1)”, the “hydrolysis rate symbol, (Vmax/V0)-1” value [2] was “+ (0.1-1)” and the Km (OXA-48) was 200 µM. For the same molecule, the “lower limit of quantification (LLOQ)” value [11] was 0.5 mg/L, the “upper limit of quantification (ULOQ)” value [11] was 20 mg/L and the “hydrolysis rate symbol, (Vmax/V0)-1” value [4] was “+ (0.1-1)”. The “hydrolysis rate symbol, (Vmax/V0)-1” value [5] was “+ (0.1-1)”, the “hydrolysis rate symbol, (Vmax/V0)-1” value [12] was “+++ (10-100)” and the “Accuracy <> (average)” value [6, 14] was 100%. For the same molecule, the “[Meropenem] <> (average)” value [6, 14] was 1.2 mg/L, the “Accuracy Replicate 1” value [6, 14] was 98% and the “[Meropenem] Replicate 1” value [6, 14] was 1.1 mg/L. For the same molecule, the “Accuracy Replicate 2” value [6, 14] was 100%, the “[Meropenem] Replicate 2” value [6, 14] was 1.2 mg/L and the “Accuracy Replicate 3” value [6, 14] was 97%. The “[Meropenem] Replicate 3” value [6, 14] was 1.1 mg/L, the “Accuracy Replicate 4” value [6, 14] was 108% and the “[Meropenem] Replicate 4” value [6, 14] was 1.3 mg/L. The “Accuracy Replicate 5” value [6, 14] was 97%, the “[Meropenem] Replicate 5” value [6, 14] was 1.1 mg/L and the “Accuracy <> (average)” value [6, 15] was 100%. The “[Meropenem] <> (average)” value [6, 15] was 20.2 mg/L, the “Accuracy Replicate 1” value [6, 15] was 103% and the “[Meropenem] Replicate 1” value [6, 15] was 20.7 mg/L. The “Accuracy Replicate 2” value [6, 15] was 104%, the “[Meropenem] Replicate 2” value [6, 15] was 20.9 mg/L and the “Accuracy Replicate 3” value [6, 15] was 98%. For the same molecule, the “[Meropenem] Replicate 3” value [6, 15] was 19.8 mg/L, the “Accuracy Replicate 4” value [6, 15] was 98% and the “[Meropenem] Replicate 4” value [6, 15] was 19.9 mg/L. The “Accuracy Replicate 5” value [6, 15] was 97%, the “[Meropenem] Replicate 5” value [6, 15] was 19.6 mg/L and the “hydrolysis rate symbol, (Vmax/V0)-1” value [7] was “+++ (10-100)”.

In the case of `CC1(C)S[C@@H]2[C@H](NC(=O)[C@H](C(=O)O)c3ccsc3)C(=O)N2[C@H]1C(=O)O` [Ticarpen ®], the “hydrolysis rate symbol, (Vmax/V0)-1” value [8] is reported as “+ (0.1-1)”, the “hydrolysis rate symbol, (Vmax/V0)-1” value [3] is reported as “++ (1-10)” and the “hydrolysis rate symbol, (Vmax/V0)-1” value [5] is reported as “+ (0.1-1)”. The “hydrolysis rate symbol, (Vmax/V0)-1” value [12] was “++ (1-10)”, the “Accuracy <> (average)” value [6, 14] was 112% and the “[Meropenem] <> (average)” value [6, 14] was 1.3 mg/L. The “Accuracy Replicate 1” value [6, 14] was 121%, the “[Meropenem] Replicate 1” value [6, 14] was 1.4 mg/L and the “Accuracy Replicate 2” value [6, 14] was 122%. The “[Meropenem] Replicate 2” value [6, 14] was 1.4 mg/L, the “Accuracy Replicate 3” value [6, 14] was 102% and the “[Meropenem] Replicate 3” value [6, 14] was 1.2 mg/L. The “Accuracy Replicate 4” value [6, 14] was 111%, the “[Meropenem] Replicate 4” value [6, 14] was 1.3 mg/L and the “Accuracy Replicate 5” value [6, 14] was 105%. The “[Meropenem] Replicate 5” value [6, 14] was 1.2 mg/L, the “Accuracy <> (average)” value [6, 15] was 101% and the “[Meropenem] <> (average)” value [6, 15] was 22.6 mg/L. The “Accuracy Replicate 1” value [6, 15] was 102%, the “[Meropenem] Replicate 1” value [6, 15] was 22.7 mg/L and the “Accuracy Replicate 2” value [6, 15] was 105%. For the same molecule, the “[Meropenem] Replicate 2” value [6, 15] was 23.4 mg/L, the “Accuracy Replicate 3” value [6, 15] was 104% and the “[Meropenem] Replicate 3” value [6, 15] was 23.1 mg/L. The “Accuracy Replicate 4” value [6, 15] was 98%, the “[Meropenem] Replicate 4” value [6, 15] was 21.9 mg/L and the “Accuracy Replicate 5” value [6, 15] was 98%. The “[Meropenem] Replicate 5” value [6, 15] was 21.9 mg/L and the “hydrolysis rate symbol, (Vmax/V0)-1” value [7] was “++++ (>100)”.

B1: Ndm1: class B beta-lactamase screened (protein, UniProt C7C422 29-270, looked up)
Metallo-beta-lactamase type 2: GEIRPTIGQQMETGDQRFGDLVFRQLAPNVWQHTSYLDMPGFGAVASNGLIVRDGGRVLVVDTAWTDDQTAQILNWIKQEINLPVALAVVTHAHQDKMGGMDALHAAGIATYANALSNQLAPQEGMVAAQHSLTFAANGWVEPATAPNFGPLKVFYPGPGHTSDNITVGIDGTDIAFGGCLIKDSKAKSLGNLGDADTEHYAASARAFGAAFPKASMIVMSHSAPDSRAAITHTARMADKLR
In the case of B1, the “Activity loss in 1 h” value [13] is reported as 0%.

B2: Kpc2: class A beta-lactamase screened (protein, UniProt Q9F663 25-293, looked up)
Carbapenem-hydrolyzing …: LTNLVAEPFAKLEQDFGGSIGVYAMDTGSGATVSYRAEERFPLCSSFKGFLAAAVLARSQQQAGLLDTPIRYGKNALVPWSPISEKYLTTGMTVAELSAAAVQYSDNAAANLLLKELGGPAGLTAFMRSIGDTTFRLDRWELELNSAIPGDARDTSSPRAVTESLQKLTLGSALAAPQRQQFVDWLKGNTTGNHRIRAAVPADWAVGDKTGTCGVYGTANDYAVVWPTGRAPIVLAVYTRAPNKDDKHSEAVIAAAARLALEGLGVNGQ
For B2, the “Activity loss in 1 h” value [13] was 2%.
